Measured values published in patent US20140066365A1, “USE OF CALIXARENES ASSOCIATED WITH AN ANTIBIOTIC IN THE TREATMENT OF BACTERIAL INFECTIONS” (priority 2011, published 2014).
Values after ≈ are worked out from the molar mass of the structure shown. Where two headings read alike, the source gives them in different places.

Experiments:
Assay type in all cases: cell-based
[1] = system: SaR1: Meticillin-Resistant Staphylococcus aureus without Associated Resistance; assay: Antibiogram, MIC by the VITEK 2 system; conditions: SaR1; for CA-SFM Interpretation: Cc CA-SFM 2011; for Results: from MIC
Experimental: (§1) The bacterial and antibiogramidentification is carried out by the VITEK 2 system (bioMérieux)

[2] = system: SaR3: Meticillin-Resistant Staphylococcus aureus; assay: Antibiogram by the disk diffusion technique; conditions: for CA-SFM Interpretation: Cd CA-SFM 2011; for Results: Table E1, against Dmin Dmax; for diameter in mm: Table E2; for Diameter: Table E1
Experimental: (§2) The bacterial and antibiogramidentification is carried out by the VITEK 2 system (bioMérieux) and by the disk diffusion technique

[3] = system: SaR4: Meticillin-Resistant Staphylococcus aureus; assay: Antibiogram, MIC by the VITEK 2 system; conditions: SaR4; for CA-SFM Interpretation: Cc CA-SFM 2011
Experimental: as §2

[4] = system: SaR1: Meticillin-Resistant Staphylococcus aureus without Associated Resistance; assay: Antibiogram, inhibition diameter (Table D1); conditions: for Results: from diameter, against Dmin Dmax
Experimental: as §1

[5] = system: ESBL-producing strain of Escherichia coli, having an associated resistance to the aminoglycosides (EcR3); assay: MIC of the compounds used alone, microdilution in a liquid medium (CLSI); conditions: Escherichia coli, antibiotic alone (second value of cell), read-out: Initial MICs
Excerpt: (§3) The MICs of the antibiotics were previously defined for each strain, by the method of microdilution in a liquid medium (CLSI (Clinical and Laboratory Standards Institute), 2003).

[6] = system: Escherichia coli strain ATCC 25922 (wild type); assay: as above; conditions: Escherichia coli, ATCC25922; antibiotic alone (second value of cell); E. coli ATCC 25922; read-out: Initial MICs
Excerpt: as §3

[7] = system: cephalosporinase-hyperproducing strain of Escherichia coli (EcR2); assay: as above; conditions: Escherichia coli, antibiotic alone (second value of cell), read-out: Initial MICs
Excerpt: as §3

[8] = system: penicillinase-producing strain of Escherichia coli without associated resistance (EcR1); assay: as above; conditions: Escherichia coli, antibiotic alone (second value of cell), read-out: Initial MICs
Excerpt: as §3

[9] = system: EcR1: Penicillinase-Producing Escherichia coli without Associated Resistance; assay: Antibiogram, MIC by the VITEK 2 system; conditions: for MIC: Escherichia coli
Experimental: (§4) 5.1 EcR1: Penicillinase-Producing Escherichia coli without Associated Resistance The bacterial and antibiogramidentification is carried out by the VITEK 2 system (bioMérieux) and by the disk diffusion technique.

[10] = system: EcR1: Penicillinase-Producing Escherichia coli without Associated Resistance; assay: Antibiogram by the disk diffusion technique; conditions: for Diameter: EcR1, disk diffusion
Experimental: as §4

[11] = system: EcR3: ESBL-Producing Escherichia coli; assay: Antibiogram by the disk diffusion technique; conditions: for Diameter: Table C1; for diameter in mm: Table C2
Experimental: The bacterial and antibiogramidentification is carried out by the VITEK 2 system (bioMerieux) and by the disk diffusion technique

[12] = system: PaR3: Pseudomonas aeruginosa; assay: Antibiogram, MIC by the VITEK 2 system
Experimental: as §1

[13] = system: PaR5: Pseudomonas aeruginosa; assay: Antibiogram by the disk diffusion technique; conditions: for diameter in mm: disk diffusion inhibition diameter, strain PaR5
Experimental: as §2

[14] = system: PaR2: Pseudomonas aeruginosa; conditions: for Diameter: Table G1; for diameter in mm: Table G2
Experimental: as §2

[15] = EcR1, Table A2, read-out: MIC mg/L (diameter in mm)
[16] = EcR1, VITEK 2, Table A1, read-out: MIC
[17] = Pseudomonas aeruginosa, Table H2, read-out: MIC
[18] = Staphylococcus aureus, Table D1, read-out: MIC
[19] = Staphylococcus aureus, Table F1, read-out: MIC
[20] = Staphylococcus aureus, Table F2, MIC, read-out: MIC

Teicoplanin
CA-SFM Interpretation [1]: Susceptible
CLSI Interpretation ([1]; Cc CLSI 2011): Susceptible
EUCAST Interpretation ([1]; Cc EUCAST 2011): Susceptible
MIC mg/L ([1]; Table D1): ≦0.5 mg/L
Results ([1]; Table D1): Susceptible
MIC mg/L ([1]; Table D2): ≦0.5 mg/L
CA-SFM Interpretation [2]: Susceptible
CLSI Interpretation ([2]; Cd CLSI 2011): Susceptible
Results [2]: Susceptible
diameter in mm [2]: 27 mm
MIC mg/L ([3]; Table F1): ≦4 mg/L
Results ([3]; Table F1, MIC): Susceptible
MIC ([3]; Table F2, MIC): ≦4 mg/L
CA-SFM Interpretation ([3]; from MIC): Susceptible
CLSI Interpretation ([3]; from MIC, Cc CLSI 2011): Susceptible
EUCAST Interpretation ([3]; from MIC, Cc EUCAST 2011): Susceptible
Results [4]: Susceptible

CCN1CCN(C(=O)N[C@@H](C(=O)N[C@@H]2C(=O)N3[C@@H]2SC(C)(C)[C@@H]3C(=O)O)c2ccccc2)C(=O)C1=O [Piperacillin]
MIC [5]: 128 µg/mL
MIC [6]: 2 µg/mL
MIC [7]: 32 µg/mL
MIC [8]: 256 µg/mL
CA-SFM Interpretation ([9]; EcR1, MIC against Cc CA-SFM 2011): Susceptible
CLSI Interpretation ([9]; EcR1, MIC against Cc CLSI 2011): Susceptible
EUCAST Interpretation ([9]; EcR1, MIC against Cc EUCAST 2011): Susceptible
Results ([9]; EcR1, interpretation of the MIC, Table A1): Susceptible
MIC [9, 15]: ≤ 8 mg/L
MIC [9, 16]: ≤ 8 mg/L
Diameter ([10]; Table A1): 17 mm
Results ([10]; EcR1, interpretation of the diameter against Dmin Dmax, Table A1): Intermediate
CA-SFM Interpretation ([11]; Cd CA-SFM 2011): Resistant
CLSI Interpretation ([11]; Cd CLSI 2011): Resistant
EUCAST Interpretation ([11]; Cd EUCAST 2011): Resistant
Diameter [11]: 13 mm
Results ([11]; Table C1, against Dmin Dmax): Intermediate
diameter in mm [11]: 13 mm
CA-SFM Interpretation ([12]; Cc CA-SFM 2011): Resistant
CLSI Interpretation ([12]; Cc CLSI 2011): Resistant
EUCAST Interpretation ([12]; Cc EUCAST 2011): Resistant
MIC [12, 17]: ≥ 128 µg/mL
MIC ([12]; Table H1): ≧128
Results ([12]; Table H1): Resistant
Diameter ([13]; PaR5, Table I1): 33 mm
Results ([13]; PaR5, Table I1, against Dmin-Dmax): Susceptible
diameter in mm [13]: 33 mm
CA-SFM Interpretation ([13]; disk diffusion, PaR5, versus critical diameter CA-SFM 2011): Susceptible
CLSI Interpretation ([13]; disk diffusion, PaR5, versus critical diameter CLSI 2011): Susceptible
EUCAST Interpretation ([13]; disk diffusion, PaR5, versus critical diameter EUCAST 2011, for ** antibiotics the disk load differs and the EUCAST interpretation is not applicable): Susceptible
CA-SFM Interpretation ([14]; Cd CA-SFM 2011): Susceptible
CLSI Interpretation ([14]; Cd CLSI 2011): Susceptible
EUCAST Interpretation ([14]; Cd EUCAST 2011): Susceptible
Diameter [14]: 22 mm
Results ([14]; Table G1, against Dmin-Dmax): Susceptible
diameter in mm [14]: 22 mm

CCC[C@@H]1C[C@@H](C(=O)N[C@@H]([C@H]2O[C@H](SC)[C@H](O)[C@@H](O)[C@H]2O)[C@@H](C)O)N(C)C1 [Lincomycin]
CA-SFM Interpretation [1]: Susceptible
Results ([1]; Table D1): Susceptible
MIC mg/L ([1]; Table D2): ≦1 mg/L
MIC [1, 18]: ≤ 1 µg/mL
CA-SFM Interpretation [2]: Susceptible
Diameter [2]: 23 mm
Results [2]: Susceptible
diameter in mm [2]: 23 mm
Results ([3]; Table F1, MIC): Resistant
CA-SFM Interpretation ([3]; from MIC): Resistant
MIC [3, 19]: ≥ 16 µg/mL
MIC [3, 20]: ≥ 16 µg/mL
Diameter [4]: 24 mm
Results [4]: Susceptible

CC1COc2c(N3CCN(C)CC3)c(F)cc3c(=O)c(C(=O)O)cn1c23 (stereo not shown) [Ofloxacin]
MIC [9, 15]: ≤ 0.25 mg/L
MIC [9, 16]: ≤ 0.25 mg/L
MIC ([1]; Table D2): 1 µg/mL (≈ 2.77 µM)
MIC [1, 18]: 1 µg/mL (≈ 2.77 µM)
Diameter ([13]; PaR5, Table I1): 11 mm
Diameter [2]: 6 mm
diameter in mm [2]: 6 mm
MIC [3, 19]: ≥ 8 µg/mL
MIC [3, 20]: ≥ 8 µg/mL
Diameter [4]: 24 mm

CN(C)c1ccc(O)c2c1C[C@H]1C[C@H]3[C@H](N(C)C)C(O)=C(C(N)=O)C(=O)[C@@]3(O)C(O)=C1C2=O [Minocycline]
MIC mg/L (diameter in mm) ([10]; EcR1, cells that print a diameter, Table A2): 20 mm
Diameter ([10]; Table A1): 20 mm
Diameter [11]: 21 mm
diameter in mm [11]: 21 mm
MIC [12, 17]: 4 µg/mL (≈ 8.74 µM)
MIC ([12]; Table H1): 4 µg/mL (≈ 8.74 µM)
MIC mg/L ([1]; Table D2): ≦0.5 mg/L
MIC [1, 18]: ≤ 0.5 µg/mL
Diameter ([13]; PaR5, Table I1): 11 mm
diameter in mm [13]: 11 mm
Diameter [2]: 26 mm
diameter in mm [2]: 26 mm
MIC [3, 19]: ≤ 4 µg/mL
MIC [3, 20]: ≤ 0.5 µg/mL
Diameter [14]: 6 mm
diameter in mm [14]: 6 mm
Diameter [4]: 27 mm
